Laboratory results: patent US8592581B2, “Trisubstituted purine derivatives” (Cyclacel Limited, priority 2007, dated 2013)
pIC50: −log10 of the molar value.

Experiments:
[1] = target: CYP2C19 (Homo sapiens (Human), UniProt P33261); assay: Cytochrome P450 substrate identification (Bactosomes) CYP2C19; format: in vitro ADME; conditions: pH 7.4, 5 μM test compound, up to 45 min, read-out: half life in the presence of CYP2C19
Description: (§1) cDNA expressed human CYP450 enzyme preparations co-expressed with human NADPH cytochrome P450 reductase (Bactosomes™) were supplied by Cypex Ltd. Bactosomes™ (final P450 concentration CYP1A2 100 pmol/mL, CYP2C8 50 pmol/mL, CYP2C9 25 pmol/mL, CYP2C19 100 pmol/mL, CYP2D6 50 pmol/mL and CYP3A4 25 pmol/mL), 0.1M phosphate buffer pH7.4 and test compound (final substrate concentration=5 μM; final DMSO concentration=0.25%) were pre-incubated at 37° C. prior to the addition of NADPH (final concentration=1 mM) to initiate the reaction. Incubations were also performed using control bactosomes (no P450 enzymes present) to reveal any non-enzymatic degradation. The final incubation volume was 25 μL. Compounds known to be metabolised specifically by each CYP450 isoform were used as control compounds.
(§2) Each compound was incubated singly for 0, 5, 15, 30 and 45 min with each CYP isoform. The reactions were stopped by the addition of 50 μL methanol containing internal standard at the appropriate time points. The incubation plates were centrifuged at 2500 rpm for 20 min at 4° C. to precipitate the protein. Following protein precipitation, the sample supernatants were combined in cassettes of up to four compounds and analysed using generic LC-MS/MS conditions.
(§3) The In peak area ratio (which has been corrected for any loss in the incubations with the control bactosomes) was plotted against time and the gradient of the line determined.
(§4) The elimination rate constant (k)=(−gradient)

[2] = target: CYP2C8 (Homo sapiens (Human), UniProt P10632); assay: Cytochrome P450 substrate identification (Bactosomes) CYP2C8; format: in vitro ADME; conditions: pH 7.4, 5 μM test compound, up to 45 min, read-out: half life in the presence of CYP2C8
Sequence of CYP2C8 (P10632 whole entry): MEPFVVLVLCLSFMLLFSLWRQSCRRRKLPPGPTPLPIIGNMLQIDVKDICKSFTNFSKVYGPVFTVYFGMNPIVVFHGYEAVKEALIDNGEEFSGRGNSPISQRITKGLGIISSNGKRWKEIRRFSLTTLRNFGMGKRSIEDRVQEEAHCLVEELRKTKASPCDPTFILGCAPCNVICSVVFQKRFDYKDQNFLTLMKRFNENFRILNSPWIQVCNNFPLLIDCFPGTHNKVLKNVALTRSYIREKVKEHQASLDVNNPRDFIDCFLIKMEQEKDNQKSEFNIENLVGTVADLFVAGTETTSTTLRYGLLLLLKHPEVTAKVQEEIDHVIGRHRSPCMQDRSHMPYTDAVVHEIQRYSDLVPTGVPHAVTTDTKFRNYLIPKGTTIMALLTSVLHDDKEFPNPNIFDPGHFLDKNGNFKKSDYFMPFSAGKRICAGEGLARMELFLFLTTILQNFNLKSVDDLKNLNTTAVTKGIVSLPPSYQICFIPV
Description: as §1, §2, §3, §4

[3] = system: NCI-H929; assay: Alamar blue cytotoxicity assay NCI-H929; format: cell-based; conditions: Homo sapiens, 72 hours, read-out: cellular cytotoxicity IC50 NCI-H929
Description: (§5) In order to determine the cellular potency of the compounds, the cytotoxicity of each compound was determined against a range of cell lines. Standard cytotoxicity methods were performed as follows: cells were seeded in 96-well plates appropriately for their doubling time (2-5000 cells per well) in RPMI or DMEM media containing 10% FCS and incubated overnight at 37° C., 5% CO2. The media was removed and 100 μl fresh media containing increasing concentrations of appropriate compound was added and the cells incubated for 72 hours at 37° C., 5% CO2. A 10% stock of alamar blue (Roche, Lewes, United Kingdom) was prepared in medium and 100 μl added to the cells which were incubated for 2 hours. Absorbance was measured on the Wallac Victor 2 1420 multi-label counter at 544-595 nm.

[4] = system: various cell lines; assay: Alamar blue cytotoxicity assay, average over the cell lines of Table 8; format: cell-based
Description: as §5

[5] = system: H358; assay: Alamar blue cytotoxicity assay H358; format: cell-based; conditions: Homo sapiens, NCI-H358; 72 hours; read-out: cellular cytotoxicity IC50 H358
Description: as §5

[6] = target: CDK 2 and CDK9; assay: In-vitro kinase potency screen against CDK 2 and CDK9 (statements in words); format: biochemical; conditions: Table 7 (not given): [A1], [A2], [A3] and [1]
Description: To evaluate the in-vitro kinase potency of the compounds, they were screened against CDK 2 and CDK9. Kinase assays were performed in 96-well plates using recombinant CDK/cyclins generated at Cyclacel. Ltd Dundee, UK. CDK2 and CDK9 assays were performed in a total volume of 25 μl in assay buffer (25 mM b-glycerophosphate, 20 mM MOPS, 5 mM EGTA, 1 mM DTT and 1 mM NaVO3, pH 7.4), into which were added 2-4 μg of active enzyme with appropriate substrates (purified histone H1 for CDK2/cyclin E, and CDK2/cyclin A, biotinyl-Ahx-(YSPTSPS)4 for CDK9/cyclin T1). The reaction was initiated by addition of Mg/ATP mix (15 mM MgCl2+100 μM ATP with 30-50 kBq per well of [—^32P]-ATP) and mixtures incubated for 15 min (CDK2/cyclin E), 30 min (CDK2/cyclin A) or 45 min (CDK9/cyclin T1) as required, at 30° C. […] After washing 3 times with 75 mM orthophosphoric acid, plates were dried, scintillant added and incorporated radioactivity measured in a scintillation counter (TopCount, Packard Instruments, Pangbourne, Berks, UK). […]
To evaluate the in-vitro kinase potency of the compounds, they were screened against CDK 2 and CDK9. […] After washing 3 times with 75 mM orthophosphoric acid, plates were dried, scintillant added and incorporated radioactivity measured in a scintillation counter (TopCount, Packard Instruments, Pangbourne, Berks, UK). […]

[7] = target: CYP3A4 (Homo sapiens (Human), UniProt P08684); assay: Cytochrome P450 substrate identification (Bactosomes) CYP3A4; format: in vitro ADME
Sequence of CYP3A4 (P08684 whole entry): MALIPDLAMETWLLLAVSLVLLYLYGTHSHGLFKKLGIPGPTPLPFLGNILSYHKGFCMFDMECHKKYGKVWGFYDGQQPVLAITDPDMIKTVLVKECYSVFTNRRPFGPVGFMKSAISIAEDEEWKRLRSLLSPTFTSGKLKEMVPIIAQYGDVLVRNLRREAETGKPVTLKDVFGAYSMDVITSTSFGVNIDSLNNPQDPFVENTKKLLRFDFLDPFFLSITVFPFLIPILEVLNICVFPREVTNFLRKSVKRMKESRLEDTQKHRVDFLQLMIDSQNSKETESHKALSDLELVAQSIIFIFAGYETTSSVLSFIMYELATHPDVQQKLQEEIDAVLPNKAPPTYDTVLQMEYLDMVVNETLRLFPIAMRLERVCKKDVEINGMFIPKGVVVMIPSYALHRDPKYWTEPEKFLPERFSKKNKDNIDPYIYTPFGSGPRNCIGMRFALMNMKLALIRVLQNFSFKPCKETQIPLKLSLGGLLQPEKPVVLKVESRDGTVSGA
Description: as §1, §2, §3, §4

Sequence of CYP2C19 (P33261 whole entry): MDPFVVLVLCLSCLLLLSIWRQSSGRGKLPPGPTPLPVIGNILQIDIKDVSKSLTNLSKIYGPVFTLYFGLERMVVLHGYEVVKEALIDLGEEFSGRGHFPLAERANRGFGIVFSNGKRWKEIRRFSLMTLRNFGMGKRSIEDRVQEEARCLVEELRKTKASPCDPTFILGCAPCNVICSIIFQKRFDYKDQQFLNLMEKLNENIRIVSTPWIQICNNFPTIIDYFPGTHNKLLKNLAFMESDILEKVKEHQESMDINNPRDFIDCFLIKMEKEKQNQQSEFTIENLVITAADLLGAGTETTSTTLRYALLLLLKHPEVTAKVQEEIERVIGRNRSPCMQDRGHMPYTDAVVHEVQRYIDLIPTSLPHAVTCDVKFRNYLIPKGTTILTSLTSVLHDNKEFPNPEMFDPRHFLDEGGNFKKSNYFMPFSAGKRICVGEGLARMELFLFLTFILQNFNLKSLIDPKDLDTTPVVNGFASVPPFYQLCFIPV

CC[C@H](Nc1nc(NCc2cnc(C)cc2C)c2ncn(C(C)C)c2n1)[C@@H](C)O [Compound [1]]
half-life at 5 μM [1]: > 45 min | half-life at 5 μM [2]: > 45 min | pIC50 [3]: 6.46 | cytotoxic potency compared with prior art compounds (in words) ([4]; 21 cell lines, versus [A1], [A2] or [A3]): significantly more potent | pIC50 ([4]; average over the cell lines of Table 8, read-out: cellular cytotoxicity IC50 Ave): 6.46 | pIC50 [5]: 6.74 | kinase inhibitor potency ranking (in words) [6]: most potent kinase inhibitors | substrate of CYP3A4 (in words) ([7]; Bactosomes system): neither a substrate of nor inhibitor of CYP3A4 | half-life at 5 μM ([7]; human, pH 7.4, Bactosomes, 5 μM test compound, up to 45 min, read-out: half life in the presence of CYP3A4): > 45 min
